These results are taken from patent publication US12060408B2, “Screening assays, modulators and modulation of activation of Receptor for Advanced Glycation End-products (RAGE)” (Monash University, priority 2017, dated 2024).

In one experiment the target is AT1 receptor (Homo sapiens, UniProt P30556). Description: Receptor-HIT BRET, β-arrestin2/Venus with RAGE/Rluc8 and AT1 receptor. Format: cell-based. Here is the method:
The BRET ratio was calculated by subtracting the ratio of ‘acceptor emission’ over ‘donor emission’ for a cell sample expressing Rluc8-tagged protein alone from the same ratio for a cell sample expressing both Rluc8 and Venus-tagged proteins. Alternatively, the ligand-induced BRET signal was calculated by subtracting the ratio of ‘acceptor emission’ over ‘donor emission’ for a vehicle-treated cell sample from the same ratio for a second aliquot of the same cells treated with agonist.
The fluorescence/luminescence ratio was generated by dividing the fluorescence values in arbitrary units (obtained with the EnVision) by the luminescence values also in arbitrary units (obtained as part of the BRET assay).
A general note: Bioluminescence resonance energy transfer reports proximity on the nanometre scale.

The next experiment deals with aortic endothelium. The experiment can be described thus: Adherence of labelled leukocytes to aortae (dynamic flow assay). On the set-up: species or system mouse. To be noted: ex vivo. The procedure: Adherence of Labelled Leukocytes to Aortae
After 1 week of a low sodium or normal sodium diet, apoE KO and AGER/apoE DKO animals were humanely killed and aortae were isolated, cleaned of fat and mounted in a vessel chamber primed with Krebs buffer and maintained at physiological pH by infusing carbogen gas (95% O2; 5% CO2) through the buffer at 37° C., as previously described. Whole blood labelled with DilC18 (1:1000) was then perfused through the aorta at 0.12 ml/min. As a positive control, vessels (n=6/group) were pre-treated with TNFα (4 ng/ml) for 4 hrs at 37° C. or Ang II (1 μM). Images and videos of vessel wall-cell interactions were acquired using a fluorescence microscope (Zeiss Discovery.V20), coupled to a digital camera ([…] ORCA-ER) and analysed with AxioVison software. Two to three frames were taken at each time point and the number of adherent cells per frame recorded.
Ex Vivo Studies in Isolated Aortae
Aortae were isolated from apoE KO and AGER/apoE DKO mice, divided and placed in Krebs buffer and maintained at physiological pH by infusing carbogen gas (95% O2; 5% CO2) through the buffer at 37° C. Vessels (n=6/group) were then treated with Ang II (1 μM) for 4 hours. […] Images and videos of vessel wall-cell interactions were observed using a fluorescence microscope (Zeiss Discovery.V20), coupled to a digital camera ([…] ORCA-ER) and analysed with AxioVison software.

In another experiment the test system is PMAEC. Description: Static adhesion assay (labelled THP-1 cells on PMAEC monolayer). To be noted: PMAEC from C57bl6 mice, 1 μM. The experiment is classed as cell-based, mouse. Here is the method: Functional responsiveness to Ang II was determined in PMAEC using a static adhesion assay, in which PMAEC were seeded at 50,000 cells per well into six-well plates and allowed to grow to 70% confluency before treatment with 1 μM Ang II for 24 hours. Human THP-1 cells, which mimic monocytes and macrophages in the vasculature, were stained using CellVue Burgundy Fluorescent Cell labelling Kit (LICOR) as per manufacturer's instructions before seeding them onto the endothelial cell monolayers at 3×10^5 viable cells per well and incubated for 20 minutes at 37° C. The cells that had not adhered to the endothelial cell monolayer were removed and the wells washed with PBS before fixing with 4% formalin in PBS for 30 min. The adhesion of cells was then quantitated using the ODYSSEY infra-red imager (Licor). Additionally adhered cells were photographed at ×20 using light microscopy (Olympus CKX41).

Experiment [1] relates to apoE KO mice. The experiment can be described thus: Aortic plaque area quantitation (Sudan IV staining of aortic arch). The experiment is classed as in vivo, mouse. From the text:
C57bl6 mice, AGER knockout (KO) mice, apoE KO mice, AGER/apoE double knockout (DKO), Ace2/apoE DKO and AGER/Ace2/apoE triple knockout (TKO) mice were sourced and generated in-house at the AMPREP animal house. All mice were bred on a C57bl6 background. For experimental studies, male mice aged 6-8 weeks and weighing between 20-25 g were used, with at least 8 animals per group for in vivo studies and n=6/group for ex vivo studies. Throughout the study animals were given access to mouse chow and water ad libitum. All experiments were approved by the animal ethics committee of the Alfred Medical Research Precinct and conducted in accordance with the Guide for the Care and Use of Laboratory Animals published by the US National Institutes of Health (NIH Publication No. 85-23, revised 1996).
Aortic Plaque Area Quantitation Method
Aortic arches were removed from mice, cleaned of excess fat, placed in 10% neutral buffered formalin and subsequently stained with Sudan IV-Herxheimer's solution (0.5% w/vol; Gurr, BDH Limited, Poole, UK). Aortae were then dissected longitudinally, and pinned flat onto a wax pad. Plaque accumulation across the aortic arch was quantitated as the percentage area stained red.
Angiotensin Infusion Model […]

For experiment [2], the system named is apoE KO mice. Description: Induction of oxidative stress (plasma 8-OHdG ELISA, aortic NOX-1/NOX-4 RT-PCR). The conditions noted are these: four-week infusion 1 μg/kg/min. Format: in vivo, mouse. From the text: Induction of Oxidative Stress
The induction of oxidative stress in each animal model was estimated by the measurement of plasma levels of 8-hydroxydeoxyguanosine using the OxiSelect Oxidative DNA Damage ELISA Kit (8-OHdG Quantitation; Cell Biolabs, Inc), and performed as per manufacturer's instructions. In addition, gene expression of the superoxide-producing NADPH oxidase subunits, NOX-1 and NOX-4 were quantitated in the aortae of mice using real time RT-PCR, as detailed above.
In general terms: In an ELISA, binding on a coated surface is turned into a signal by an enzyme label.

AT1 receptor, sequence (P30556 whole entry): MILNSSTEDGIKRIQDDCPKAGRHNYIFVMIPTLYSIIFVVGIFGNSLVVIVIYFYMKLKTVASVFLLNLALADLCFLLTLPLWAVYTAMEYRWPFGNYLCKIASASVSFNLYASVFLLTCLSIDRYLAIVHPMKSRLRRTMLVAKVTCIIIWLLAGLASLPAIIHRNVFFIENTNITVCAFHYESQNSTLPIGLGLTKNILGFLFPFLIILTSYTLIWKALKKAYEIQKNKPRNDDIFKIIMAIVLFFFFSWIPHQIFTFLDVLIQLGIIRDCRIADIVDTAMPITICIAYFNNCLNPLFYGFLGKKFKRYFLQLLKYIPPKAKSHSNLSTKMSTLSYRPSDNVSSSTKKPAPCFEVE
AT1 receptor, sequence (P32121 whole entry partner): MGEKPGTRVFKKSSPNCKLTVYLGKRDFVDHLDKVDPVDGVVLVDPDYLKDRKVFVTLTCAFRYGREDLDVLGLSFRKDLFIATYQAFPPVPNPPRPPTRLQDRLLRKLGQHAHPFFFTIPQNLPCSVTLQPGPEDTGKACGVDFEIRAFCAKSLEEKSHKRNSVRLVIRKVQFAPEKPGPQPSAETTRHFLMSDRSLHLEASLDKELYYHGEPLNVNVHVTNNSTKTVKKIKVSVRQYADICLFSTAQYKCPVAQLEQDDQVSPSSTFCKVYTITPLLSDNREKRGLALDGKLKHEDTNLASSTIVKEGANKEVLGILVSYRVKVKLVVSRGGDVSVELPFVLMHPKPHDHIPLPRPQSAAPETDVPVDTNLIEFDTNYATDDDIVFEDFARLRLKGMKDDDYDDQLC

In the case of “angiotensin II (DRVYIHPF) [Ang II, cognate ligand of AT1R]”, in the experiment with AT1 receptor (control), the “recruitment of βarrestin2/Venus to AT1/Rluc8” value was “recruitment”. Moreover, the “recruitment of β-arrestin2/Venus proximal to RAGE/Rluc8” value in the experiment with AT1 receptor (in the presence of AT1 receptor) is reported as “recruitment”. For the same substance, in the experiment with aortic endothelium (aortae from AGER/apoE DKO mice, 1 μM), the “endothelial adhesiveness of primed leucocytes” value is on record as “prevents”. Besides, the “number of adherent leukocytes” value in the experiment with aortic endothelium (aortae from apoE KO mice, 1 μM vs untreated) is “increased number of adherent leukocytes”. In addition, the “adhesion of labelled THP-1 cells to PMAEC monolayer” value in the experiment on PMAEC was “increased adhesion”. In the experiment with apoE KO mice [1] (AGER/apoE DKO mice, four-week infusion 1 μg/kg/min), the “atherogenesis (plaque area)” value is on record as “prevents the increase in atherogenesis”. Further, the “atherogenesis (percentage of the aortic arch surface area staining positive to Sudan IV)” value in the experiment on apoE KO mice [1] (apoE KO mice, four-week infusion 1 μg/kg/min vs untreated) is “increases atherogenesis”. In the experiment with apoE KO mice [2] (AGER/apoE DKO mice), the oxidative stress result is given as “preventing”. In the experiment on apoE KO mice [2] (apoE KO mice), the “markers of oxidative stress” value is “increases”.
